One assay concerns the target eqBChE (Equus caballus, UniProt P81908). The assay can be described thus: BChE inhibition and enzyme kinetics, Ellman assay. In kind it is biochemical, equine. For orientation: Ellman's reagent forms a yellow product with free thiols.
In the next assay the target is EeAChE (Electrophorus electricus, UniProt O42275). The assay can be described thus: AChE inhibition and enzyme kinetics, Ellman assay. In kind it is biochemical, electric eel. As to conditions: IC50 (μM) ± SD EeAChE, Ellman assay.
Chain of EeAChE (O42275 24-633): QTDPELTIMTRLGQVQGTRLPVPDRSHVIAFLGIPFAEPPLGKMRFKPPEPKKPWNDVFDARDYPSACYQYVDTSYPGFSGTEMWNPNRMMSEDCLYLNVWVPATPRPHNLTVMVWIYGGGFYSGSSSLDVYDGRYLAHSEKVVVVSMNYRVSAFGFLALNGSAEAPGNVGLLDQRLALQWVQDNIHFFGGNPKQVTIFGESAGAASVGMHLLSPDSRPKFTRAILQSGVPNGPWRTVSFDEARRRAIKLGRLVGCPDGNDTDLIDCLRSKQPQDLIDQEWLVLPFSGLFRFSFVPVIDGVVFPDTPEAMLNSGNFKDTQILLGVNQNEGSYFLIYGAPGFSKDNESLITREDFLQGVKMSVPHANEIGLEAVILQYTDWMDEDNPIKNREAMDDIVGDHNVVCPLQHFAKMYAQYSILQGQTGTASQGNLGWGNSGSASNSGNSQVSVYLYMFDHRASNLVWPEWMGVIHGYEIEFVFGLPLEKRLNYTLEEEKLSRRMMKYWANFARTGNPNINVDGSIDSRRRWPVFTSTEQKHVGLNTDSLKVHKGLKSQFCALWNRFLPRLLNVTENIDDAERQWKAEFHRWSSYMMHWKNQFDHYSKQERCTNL
In a further assay the target is hBACE-1 (Homo sapiens, UniProt P56817). The assay can be described thus: biochemical.
Chain of hBACE-1 (P56817 46-501): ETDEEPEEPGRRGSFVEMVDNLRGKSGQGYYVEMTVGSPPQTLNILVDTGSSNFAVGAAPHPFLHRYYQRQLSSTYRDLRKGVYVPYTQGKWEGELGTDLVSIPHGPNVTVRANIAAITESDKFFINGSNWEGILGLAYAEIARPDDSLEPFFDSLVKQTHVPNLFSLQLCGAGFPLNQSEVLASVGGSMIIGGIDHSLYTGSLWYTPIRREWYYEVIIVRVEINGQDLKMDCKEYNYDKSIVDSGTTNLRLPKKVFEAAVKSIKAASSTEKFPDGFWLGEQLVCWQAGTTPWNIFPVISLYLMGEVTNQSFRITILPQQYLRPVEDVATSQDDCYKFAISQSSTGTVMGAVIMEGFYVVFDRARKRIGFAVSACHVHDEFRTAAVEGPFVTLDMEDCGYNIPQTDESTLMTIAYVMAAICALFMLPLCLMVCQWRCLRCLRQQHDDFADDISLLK

Chain of eqBChE (P81908 whole entry): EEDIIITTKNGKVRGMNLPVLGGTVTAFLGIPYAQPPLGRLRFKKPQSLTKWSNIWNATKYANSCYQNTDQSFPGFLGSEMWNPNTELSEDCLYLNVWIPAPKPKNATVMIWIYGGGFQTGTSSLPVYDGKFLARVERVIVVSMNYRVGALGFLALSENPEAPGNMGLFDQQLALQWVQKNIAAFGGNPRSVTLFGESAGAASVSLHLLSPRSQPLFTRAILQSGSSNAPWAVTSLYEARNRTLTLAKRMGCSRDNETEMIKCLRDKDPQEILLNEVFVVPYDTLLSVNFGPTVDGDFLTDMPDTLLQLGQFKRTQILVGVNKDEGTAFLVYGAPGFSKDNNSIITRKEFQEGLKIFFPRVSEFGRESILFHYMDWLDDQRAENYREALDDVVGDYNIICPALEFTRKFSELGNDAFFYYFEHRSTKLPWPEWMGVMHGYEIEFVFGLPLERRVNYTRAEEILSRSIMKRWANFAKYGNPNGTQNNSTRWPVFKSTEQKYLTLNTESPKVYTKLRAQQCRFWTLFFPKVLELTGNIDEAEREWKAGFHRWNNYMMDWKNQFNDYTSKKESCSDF

As to `O=c1cc(OCc2cn(Cc3ccccc3)nn2)c2ccccc2o1` [8a, 4-((1-Benzyl-1H-1,2,3-triazol-4-yl)methoxy)-2H-chromen-2-one], the IC50 – broadly, the concentration that inhibits the measured activity by half – on eqBChE was 212 ± 2.55 µM; against EeAChE, 151 ± 3.14 µM; on hBACE-1 it was 72.9 ± 2.4 µM.

For the compound `O=c1cc(OCc2cn(Cc3ccccc3Cl)nn2)c2ccccc2o1` [8b, 4-((1-(2-Chlorobenzyl)-1H-1,2,3-triazol-4-yl)methoxy)-2H-chromen-2-one], the IC50 against eqBChE is 42.2 ± 0.78 µM; at EeAChE, 68.7 ± 0.71 µM; against hBACE-1 it was 186.6 ± 1.21 µM.

Consider `O=c1cc(OCc2cn(Cc3cccc(Cl)c3)nn2)c2ccccc2o1` [8c, 4-((1-(3-Chlorobenzyl)-1H-1,2,3-triazol-4-yl)methoxy)-2H-chromen-2-one], for which the IC50 at eqBChE was found to be 61.9 ± 3.66 µM; against EeAChE, 62.6 ± 2.4 µM; on hBACE-1 it was 24.8 ± 1.49 µM.

As for `O=c1cc(OCc2cn(Cc3c(Cl)cccc3Cl)nn2)c2ccccc2o1` [8d, 4-((1-(2,6-Dichlorobenzyl)-1H-1,2,3-triazol-4-yl)methoxy)-2H-chromen-2-one], the IC50 worked out at 40.3 ± 0.93 µM against eqBChE, 59.4 ± 2.71 µM on EeAChE and 106 ± 1.38 µM at hBACE-1.

In the case of `O=c1cc(OCc2cn(Cc3ccccc3F)nn2)c2ccccc2o1` [8e, 4-((1-(2-Fluorobenzyl)-1H-1,2,3-triazol-4-yl)methoxy)-2H-chromen-2-one], the IC50 came out at 62.3 ± 1.2 µM at eqBChE, 89.2 ± 1.88 µM against EeAChE and 111.2 ± 0.63 µM against hBACE-1.

Regarding `O=c1cc(OCc2cn(Cc3cccc(F)c3)nn2)c2ccccc2o1` [8f, 4-((1-(3-Fluorobenzyl)-1H-1,2,3-triazol-4-yl)methoxy)-2H-chromen-2-one], the IC50 is 236 ± 3.6 µM against eqBChE, 232.8 ± 2.31 µM against EeAChE and 22.3 ± 1.54 µM on hBACE-1.

For the compound `O=c1cc(OCc2cn(Cc3ccc(F)cc3)nn2)c2ccccc2o1` [8g, 4-((1-(4-Fluorobenzyl)-1H-1,2,3-triazol-4-yl)methoxy)-2H-chromen-2-one], the IC50 amounted to 249 ± 3.1 µM against eqBChE, 194 ± 2.19 µM against EeAChE and 24.2 ± 1.98 µM at hBACE-1.

Consider `O=c1cc(OCc2cn(Cc3c(F)cccc3F)nn2)c2ccccc2o1` [8h, 4-((1-(2,6-Difluorobenzyl)-1H-1,2,3-triazol-4-yl)methoxy)-2H-chromen-2-one], for which the IC50 against eqBChE is 66.7 ± 1.37 µM; against EeAChE, 73.89 ± 0.63 µM; on hBACE-1 it was 135 ± 1.9 µM.

As to `O=c1cc(OCc2cn(Cc3ccccc3C(F)(F)F)nn2)c2ccccc2o1` [8i, 4-((1-(2-(Trifluoromethyl)benzyl)-1H-1,2,3-triazol-4-yl)methoxy)-2H-chromen-2-one], the figures for the IC50 on eqBChE, against EeAChE and on hBACE-1 were 7.04 ± 0.77 µM, 4.83 ± 0.11 µM and 10.2 ± 0.79 µM, respectively.

As for `O=c1cc(OCc2cn(Cc3ccc(C(F)(F)F)cc3)nn2)c2ccccc2o1` [8j, 4-((1-(4-(Trifluoromethyl)benzyl)-1H-1,2,3-triazol-4-yl)methoxy)-2H-chromen-2-one], the IC50 is 209 ± 2.11 µM on eqBChE, 23.3 ± 2.86 µM at EeAChE and 19.5 ± 0.66 µM against hBACE-1.

Take `O=c1cc(OCc2cn(Cc3ccccc3OC(F)(F)F)nn2)c2ccccc2o1` [8k, 4-((1-(2-(Trifluoromethoxy)benzyl)-1H-1,2,3-triazol-4-yl)methoxy)-2H-chromen-2-one]: the figures for the IC50 on eqBChE, against EeAChE and at hBACE-1 were 9.95 ± 0.89 µM, 9.13 ± 0.73 µM and 18 ± 1.59 µM, respectively.

Turning to `Cc1cc(=O)oc2cc(OCc3cn(Cc4ccccc4OC(F)(F)F)nn3)c(OCc3cn(Cc4ccccc4OC(F)(F)F)nn3)cc12` [13d, 4-Methyl-6,7-bis((1-(2-(trifluoromethoxy)benzyl)-1H-1,2,3-triazol-4-yl)methoxy)-2H-chromen-2-one], the IC50 against EeAChE is 176 ± 10.2 µM; on hBACE-1, 20.7 ± 0.93 µM.

As to `O=c1ccc2ccc(O)cc2o1` [compound 17, 7-hydroxycoumarin], on hBACE-1, the IC50 was 175 ± 4.37 µM.

`C[n+]1c2ccccc2cc2[n-]c3ccccc3c21` [cryptolepine, reference compound]: the IC50 against eqBChE is 0.61 ± 0.3 µM; against EeAChE it was 0.33 ± 0.2 µM.

For the origin of these results see publication PMC10061512 (ACS Omega, 2023).
